Measured values as given in PubChem BioAssay (NCI).
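How tested: cells in 96-well plates exposed to compound for 48 hours at five concentrations. TGI marks complete inhibition of growth.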

Experiments:
Assay in all cases: NCI tumour cell line growth inhibition, 48 h
CCRF-CEM leukemia = test system: CCRF-CEM leukemia
SF-539 CNS = test system: SF-539 CNS
UACC-257 melanoma = test system: UACC-257 melanoma
SF-268 CNS = test system: SF-268 CNS
A549 NSCLC = test system: A549 NSCLC
MALME-3M melanoma = test system: MALME-3M melanoma
HT29 colon = test system: HT29 colon
P388 leukemia = test system: P388 leukemia
RXF 393 renal = test system: RXF 393 renal
HCC-2998 colon = test system: HCC-2998 colon
KM20L2 colon = test system: KM20L2 colon
IGROV1 ovarian = test system: IGROV1 ovarian
SK-MEL-28 melanoma = test system: SK-MEL-28 melanoma
K-562 leukemia = test system: K-562 leukemia
NCI-H460 lung = test system: NCI-H460 lung
OVCAR-3 ovarian = test system: OVCAR-3 ovarian
HCT-15 colon = test system: HCT-15 colon
OVCAR-4 ovarian = test system: OVCAR-4 ovarian
KM12 colon = test system: KM12 colon
LOX IMVI melanoma = test system: LOX IMVI melanoma
SK-MEL-5 melanoma = test system: SK-MEL-5 melanoma
SNB-78 CNS = test system: SNB-78 CNS
XF 498 CNS = test system: XF 498 CNS
RPMI-8226 leukemia = test system: RPMI-8226 leukemia
SNB-19 CNS = test system: SNB-19 CNS
SK-OV-3 ovarian = test system: SK-OV-3 ovarian
NCI-H226 lung = test system: NCI-H226 lung
MCF7 breast = test system: MCF7 breast
HL-60(TB) leukemia = test system: HL-60(TB) leukemia
SN12K1 renal = test system: SN12K1 renal
NCI/ADR-RES ovarian = test system: NCI/ADR-RES ovarian
U251 CNS = test system: U251 CNS
A498 renal = test system: A498 renal
DMS 273 small cell lung = test system: DMS 273 small cell lung
SK-MEL-2 melanoma = test system: SK-MEL-2 melanoma
MOLT-4 leukemia = test system: MOLT-4 leukemia
UACC-62 melanoma = test system: UACC-62 melanoma
NCI-H23 lung = test system: NCI-H23 lung
HOP-62 NSCLC = test system: HOP-62 NSCLC
HCT-116 colon = test system: HCT-116 colon
OVCAR-8 ovarian = test system: OVCAR-8 ovarian
SN12C renal = test system: SN12C renal
HOP-18 NSCLC = test system: HOP-18 NSCLC
OVCAR-5 ovarian = test system: OVCAR-5 ovarian
SF-295 CNS = test system: SF-295 CNS
COLO 205 colon = test system: COLO 205 colon
P388/ADR leukemia = test system: P388/ADR leukemia
DLD-1 colon = test system: DLD-1 colon
NCI-H522 lung = test system: NCI-H522 lung
EKVX NSCLC = test system: EKVX NSCLC
SNB-75 CNS = test system: SNB-75 CNS
M19-MEL melanoma = test system: M19-MEL melanoma
HOP-92 NSCLC = test system: HOP-92 NSCLC
CAKI-1 renal = test system: CAKI-1 renal
UO-31 renal = test system: UO-31 renal
SW-620 colon = test system: SW-620 colon
DMS 114 small cell lung = test system: DMS 114 small cell lung

CC(=O)OCc1cc(=O)n(C)c2c3c4c(cc12)c(C)cc(=O)n4CO3
TGI (CCRF-CEM leukemia): 12.7 µM | TGI (SF-539 CNS): 3.95 µM | TGI (UACC-257 melanoma): 5.42 µM | TGI (SF-268 CNS): 7.21 µM | TGI (A549 NSCLC): 21.1 µM | TGI (MALME-3M melanoma): 2.72 µM | TGI (HT29 colon): 8.81 µM | TGI (P388 leukemia): 4.99 µM | TGI (RXF 393 renal): 3.33 µM | TGI (HCC-2998 colon): 4.61 µM | TGI (KM20L2 colon): 15.8 µM | TGI (IGROV1 ovarian): 11.5 µM | TGI (SK-MEL-28 melanoma): 3.42 µM | TGI (K-562 leukemia): 27.7 µM | TGI (NCI-H460 lung): 5.74 µM | TGI (OVCAR-3 ovarian): 7.74 µM | TGI (HCT-15 colon): 37.8 µM | TGI (OVCAR-4 ovarian): 6.56 µM | TGI (KM12 colon): 41.7 µM | TGI (LOX IMVI melanoma): 8.6 µM | TGI (SK-MEL-5 melanoma): 4.18 µM | TGI (SNB-78 CNS): 14.2 µM | TGI (XF 498 CNS): 3.82 µM | TGI (RPMI-8226 leukemia): 11.1 µM | TGI (SNB-19 CNS): 72.8 µM | TGI (SK-OV-3 ovarian): 51 µM | TGI (NCI-H226 lung): 5.5 µM | TGI (MCF7 breast): 17 µM | TGI (HL-60(TB) leukemia): 16.2 µM | TGI (SN12K1 renal): 5.57 µM | TGI (NCI/ADR-RES ovarian): 10.9 µM | TGI (U251 CNS): 26.6 µM | TGI (A498 renal): 5.3 µM | TGI (DMS 273 small cell lung): 3.86 µM | TGI (SK-MEL-2 melanoma): 3.65 µM | TGI (MOLT-4 leukemia): 4.25 µM | TGI (UACC-62 melanoma): 3.58 µM | TGI (NCI-H23 lung): 5.01 µM | TGI (HOP-62 NSCLC): 4.3 µM | TGI (HCT-116 colon): 20 µM | TGI (OVCAR-8 ovarian): 12.7 µM | TGI (SN12C renal): 30.8 µM | TGI (HOP-18 NSCLC): 51.5 µM | TGI (OVCAR-5 ovarian): 20.5 µM | TGI (SF-295 CNS): 6.49 µM | TGI (COLO 205 colon): 4.23 µM | TGI (P388/ADR leukemia): 3.34 µM | TGI (DLD-1 colon): 26.3 µM | TGI (NCI-H522 lung): 2.16 µM | TGI (EKVX NSCLC): 11.2 µM | TGI (SNB-75 CNS): 4.69 µM | TGI (M19-MEL melanoma): 4.21 µM | TGI (HOP-92 NSCLC): 10 µM | TGI (CAKI-1 renal): 33.9 µM | TGI (UO-31 renal): 26.5 µM | TGI (SW-620 colon): 15.6 µM | TGI (DMS 114 small cell lung): 6.11 µM
